Measurements reported in patent US20090304674A1, “METHODS FOR TREATING DISEASE BY REGULATING CLL CELL SURVIVAL” (priority 2005, published 2009).
“Also recorded” adds a separate entry of the source.

Columns and labels:
[1] = tested on: normal B cells of healthy donors; test: Viability of isolated normal B cells of healthy donors with or without rhBAFF and UTC; assay type: cell-based, human; settings: UTC 10 μM, 48 hours
Description: CD19+ B cells of healthy donors were isolated from the buffy coat of blood samples collected from adult volunteers at the San Diego Blood Bank (San Diego, Calif.), as described.
Isolated blood mononuclear cells of patients with CLL were incubated with saturating amounts of Dynabeads coated with anti-CD2 or anti-CD14 mAbs (Dynal A.S. Oslo, Norway). Beadbound cells were removed with a strong magnetic field. Following depletion, less than 0.5% of cells were CD2+ or CD14+, whereas more than 99% were CD19+, as assessed via flow cytometry (data not shown). Peripheral normal CD19+ B cells of healthy donors were purified from the buffy coat of blood samples using CD19 Dynabeads and Detach A Beads (Dynal), following the manufacturer's instructions.
Freshly thawed CLL B cells were cultured at the concentration of 1×10^6/mL under various conditions. Determination of CLL cell viability in this study was based on the analysis of mitochondrial transmembrane potential (Δψm) using 3,3′-dehexyloxacarbocyamine iodine (DiOC6) and cell membrane permeability to PI, as described. […] The cells then were incubated at 37° C. for 15 minutes and analyzed within 30 minutes by flow cytometry using a FACSCalibur (Becton Dickinson). Fluorescence was recorded at 525 nm (FL-1) for DiOC6 and at 600 nm (FL-3) for PI.

[2] = tested on: canonical NF-κB1 pathway in CLL B cells; test: Immunoblot of canonical NF-κB1 pathway activation (IκBα degradation/phosphorylation, p65 nuclear translocation) in CLL B cells; assay type: cell-based, human; settings: rhBAFF 50 ng/ml, 24 hours, UTC pre-incubated 1 hour
Description: Cell lysates were prepared with RIPA buffer (10 mM Tris (pH 7.4), 150 mM NaCl, 1% Triton x 100, 1% deoxycholate, 0.1% SDS, 5 mM EDTA), containing 1 mM PMSF, 0.28 TIU/ml aprotinin, 50 μg/ml leupeptin, 1 mM benzamidine, 0.7 μg/ml pepstatin. Lysates were normalized for total protein (20 μg), subjected to SDS-PAGE (4-15% gradient gels, Bio-Rad, Hercules, Calif.) and immunoblot assay. We incubated the blots with secondary antibodies that were conjugated with horseradish peroxidase. Blots then were prepared for enhanced chemiluminescence (ECL) detection system (Amersham, Little Chalfont, Buckinghamshire, UK) and subsequent autoradiography with Super RX film (Fuji, Tokyo, Japan). The mouse mAb against APRIL (APRIL8) was from Alexis Biochemicals. The mouse mAb against inhibitor of kappa B-α (IκκBα was from Imgenex (San Diego, Calif.). The antibodies against anti-phosho-MAP kinase Erk1/2 and anti-MAP kinase Erk1/2-CT were purchased from Upstate Biotechnology. Antibodies against AKT or phospho-AKT (Ser473) were from Cell Signaling (Beverly, Mass.). Rabbit polyclonal antibodies (Mcl-1, Bcl-2, and Bax) were raised against synthetic peptides.21 Also primary antibodies included β-actin (Sigma Immunochemicals, St Louis, Mo.). Anti-p52 and anti-p65 antibodies were purchased from Upstate Biotechnology.
For fractionation experiments, cells were collected by centrifugation and washed with PBS. The cell pellet containing 5×10^6 cells was suspended in 100 μl of hypotonic buffer (50 mM Tris (pH7.4), 5 mM EDTA, 10 mM NaCl, 0.05% NP-40, 1 mM PMSF, 10 μg/ml Aprotinin, 10 μg/ml Leupeptin, 10 μg/ml Pepstatin, 10 mM β-Glycerophosphate, 1 mM Na-Vanadate, 1 mM NaF). After 10 minutes the lysate was spun and the supernatant was collected as cytoplasmic lysates. The pellet was washed 5 times in hypotonic buffer containing 0.1% NP-40. The remaining pellet was suspended in 100 μl RIPA buffer containing protease and phosphatase inhibitors. After an appropriate amount of 3× sample buffer (200 mM Tris (pH 6.8), 30 mM EDTA, 30% Glycerol, 6% SDS) was added, the sample was boiled for 10 minutes, spun for 10 minutes and the supernatant was recovered as nucleus lysates. Anti-NF kappa B p52 and p65 were purchased from Upstate Biotechnology. Anti-SP-1 was purchased from Santa Cruz Biotechnology (Santa Cruz, Calif.).
Cell lysates were prepared with radioimmunoprecipitation assay (RIPA) buffer (10 mM Tris [pH 7.4], 150 mM NaCl, 1% Triton X-100, 0.1% deoxycholate, 0.1% SDS, 5 mM EDTA), containing 1× complete protease inhibitor cocktail (Roche diagnostics), 1 mM sodium fluoride (NaF), and 1 mM sodium vanadate (Na3VO4). Lysates were normalized for total protein (25 μg) and subjected to SDS-PAGE (4-15% gradient gels, Bio-Rad, Hercules, Calif.) and immunoblot assay. We incubated the blots with secondary antibodies that were conjugated with horseradish peroxidase. Blots then were prepared for enhanced chemiluminescence (ECL) detection system (Amersham, Little Chalfont, United Kingdom) and subsequent autoradiography with Super RX film (Fuji, Tokyo, Japan).
For fractionation experiments, cells were collected by centrifugation and washed with PBS. The cell pellet containing 5×10^6 cells was suspended in 100 μl of hypotonic buffer (50 mM Tris [pH7.4], 5 mM EDTA, 10 mM NaCl, 0.05% Nonidet P40 [NP-40]), containing 1× complete protease inhibitor cocktail, 1 mM NaF, and 1 mM Na3VO4. After 10 minutes, the lysate was spun and the supernatant was collected as cytoplasmic lysates. […]

[3] = target: T1, IKK-2 (IKKβ) (Homo sapiens, UniProt O14920); settings: reported by Podolin and colleagues, cited from earlier work
T1 sequence (O14920 1-756): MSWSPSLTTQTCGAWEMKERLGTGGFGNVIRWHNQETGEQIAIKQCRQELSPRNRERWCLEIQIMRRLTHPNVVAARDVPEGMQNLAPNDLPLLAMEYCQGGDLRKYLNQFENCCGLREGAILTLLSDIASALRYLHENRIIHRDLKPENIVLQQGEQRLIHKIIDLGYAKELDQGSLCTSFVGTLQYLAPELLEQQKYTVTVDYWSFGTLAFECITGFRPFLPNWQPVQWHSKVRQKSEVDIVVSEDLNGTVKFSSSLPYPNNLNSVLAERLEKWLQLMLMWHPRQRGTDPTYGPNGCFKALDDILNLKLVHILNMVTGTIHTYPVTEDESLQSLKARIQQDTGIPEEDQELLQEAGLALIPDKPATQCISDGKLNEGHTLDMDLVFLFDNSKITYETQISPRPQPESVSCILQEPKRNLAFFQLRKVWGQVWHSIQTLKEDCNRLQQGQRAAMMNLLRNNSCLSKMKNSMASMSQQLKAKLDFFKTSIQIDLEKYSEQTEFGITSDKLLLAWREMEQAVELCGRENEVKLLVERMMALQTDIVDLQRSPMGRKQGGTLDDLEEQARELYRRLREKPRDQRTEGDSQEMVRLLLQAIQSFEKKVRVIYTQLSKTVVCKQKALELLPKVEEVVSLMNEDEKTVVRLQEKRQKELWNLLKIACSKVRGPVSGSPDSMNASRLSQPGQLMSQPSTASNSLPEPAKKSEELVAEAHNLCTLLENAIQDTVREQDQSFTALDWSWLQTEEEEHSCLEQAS

[4] = tested on: CLL cells; test: Viability of CLL cells cultured with or without rhBAFF and inhibitors (DiOC6/PI flow cytometry); assay type: cell-based, human; settings: UTC 10 μM, 48 hours
Description: Freshly thawed CLL B cells were cultured at the concentration of 1×10^6/mL under various conditions. Determination of CLL cell viability in this study was based on the analysis of mitochondrial transmembrane potential (Δψm) using 3,3′-dehexyloxacarbocyamine iodine (DiOC6) and cell membrane permeability to PI, as described. For viability assays, 100 μl of the cell culture was collected at the indicated time points and transferred to polypropylene tubes containing 100 μl of 80 nmol/l DiOC6 (Molecular Probes) and 2 μg/ml PI in FACS buffer. The cells then were incubated at 37° C. for 15 minutes and analyzed within 30 minutes by flow cytometry using a FACSCalibur (Becton Dickinson). Fluorescence was recorded at 525 nm (FL-1) for DiOC6 and at 600 nm (FL-3) for PI.

SMILES: NC(=O)Nc1sc(-c2ccc(F)cc2)cc1C(N)=O [UTC, 5-(4-fluorophenyl)-2-ureido-thiophene-3 carboxylic acid amide]
- survival/viability of isolated normal B cells cultured without rhBAFF ([1]; 8 donors): did not have any effect on survival of isolated normal B cells; also recorded: no significant difference
- effect on pro-survival effect of exogenous rhBAFF on normal B cells ([1]; rhBAFF 50 ng/ml): could partially block the pro-survival effect of exogenous rhBAFF
- inhibition of BAFF-induced translocation of p65 to the nucleus ([2]; anti-BR3 10 μg/ml): inhibited BAFF induced nuclear translocation of p65
- inhibition of rhBAFF-induced phosphorylation of IκBα ([2]; anti-BR3 or BR3-Fc 10 μg/ml): inhibited phosphorylation of IκBα
- selectivity for IKK-2 versus the other ten kinases ([3]; p38α, p38β, p38γ, p38δ, MAPKAPK2, MKK1, MAPK2, COX-1, COX-2, JNK1): more than 550 fold
- selectivity for IKK-2 versus IKK-1 [3]: 22 fold
- selectivity for IKK-2 versus JNK3 [3]: 200 fold
- viability of CLL cells versus medium alone ([4]; 8 patients): significantly lower than that of CLL cells cultured with medium alone
- effect on rhBAFF-enhanced survival/viability of CLL cells ([4]; rhBAFF 50 ng/ml, anti-BR3 or BR3-Fc 10 μg/ml): significantly inhibited the capacity of rhBAFF to support CLL cell survival
